Experimental data reported in PMC10609152, “Synthesis, Computational, and Anticancer In Vitro Investigations of Aminobenzylnaphthols Derived from 2-Naphtol, Benzaldehydes, and α-Aminoacids via the Betti Reaction” (Molecules, 2023).
Read-outs that look alike come from different tables or passages of the source.

What was measured:
HBL100 = tested on: HBL100; set-up: method as in doi:10.31083/j.jmcm.2019.02.7181; conditions: cited from earlier work
HeLa = tested on: HeLa; set-up: method as in doi:10.31083/j.jmcm.2019.02.7181; conditions: cited from earlier work
SW1573 = tested on: SW1573; set-up: method as in doi:10.31083/j.jmcm.2019.02.7181; conditions: cited from earlier work
T47D = tested on: T47D; set-up: method as in doi:10.31083/j.jmcm.2019.02.7181; conditions: cited from earlier work
A549 = tested on: A549; set-up: method as in doi:10.31083/j.jmcm.2019.02.7181; conditions: cited from earlier work
BxPC-3 cells [1] = assay: MTT assay, BxPC-3; type: cell-based; conditions: Homo sapiens
Description: (§1) The MTT assay, also known as the 3-(4,5-dimethylthiazol-2-yl)-2,5-diphenyltetrazolium bromide assay, is a colorimetric assay used in biological and biomedical research to determine cell viability and proliferation. The MTT assay works on the assumption that live cells with active metabolism convert MTT into formazan crystals. These crystals are insoluble; however, they can be dissolved in an organic solvent such as DMSO to produce a colorful solution. The color intensity is proportional to the number of viable cells present in the culture.
(§2) BxPC-3, HT-29, and WI-38 cells were seeded on 96-well plates at a density of approximately 8–10 × 10^3 cells per 100 µL medium/well. Cells were allowed to grow for 24 h in controlled conditions (37 °C; 5% CO2). […] The experimental design included nontreated controls and blanks (wells without cells). Following 24 or 72 h of culture with the investigated compounds, 20 μL of MTT tetrazolium salt (5 mg/mL in PBS) was added to each well, and the plates were incubated for 3 h in a humidified environment (37 °C; 5% CO2). The solutions were withdrawn after incubation, and 100 μL of DMSO was added to dissolve the formazan complexes. Afterward, a spectrophotometer (microplate reader Power Wave XS BioTek Instruments, Inc., Winooski, VT, USA) reading at 570 nm was conducted. The experiments were carried out in duplicates.
(§3) GraphPad Prism 7 software was used to calculate the concentration of an MMZ compound reflecting a 50% growth inhibition (IC50). IC50 is defined as a concentration of tested compound that leads to a reduction in cell pool viability by 50% compared to the negative control (accepted as 100%). % cell viability=Absorbance value of treated cells−Absorbance value of blank/(Absorbance value of untreated cells−Absorbance value of blank)×100%

HT-29 cells [2] = assay: MTT assay, HT-29; type: cell-based; conditions: Homo sapiens
Description: as §1, §2, §3

BxPC-3 cells [3] = assay: AO/EB double staining, BxPC-3; type: cell-based; conditions: BxPC-3, IC50 concentration, 72 h
Procedure: (§4) BxPC-3 and HT-29 cells were plated at a density of 5 × 10^4 cells per well in 12-well plates. After 24 h, the cells were treated with MMZ-45AA and MMZ-140C at concentrations corresponding to their IC50 values obtained from the MTT assay. The cells were exposed to the compounds for 72 h. Following the incubation period, the cells were treated with a mixture of fluorochromes (100 µM AO/EB in a 1:1 ratio, v/v) for 5 min at 37 °C in the absence of light.
(§5) The staining technique allowed for the differentiation of viable, apoptotic, and necrotic cells based on their varying uptake of fluorescent DNA-binding dyes and the degree of chromatin condensation in the stained nuclei. A fluorescence microscope (Olympus BX60 F5, Olympus Optical Co., Ltd., Nagano, Japan) with an excitation wavelength of 360 nm was used to analyze the cells. The results were obtained from three independent experiments.

HT-29 cells [4] = assay: AO/EB double staining, HT-29; type: cell-based; conditions: HT-29, IC50 concentration, 72 h
Procedure: as §4, §5

BxPC-3 cells [5] = assay: Annexin V-FITC/PI flow cytometry, BxPC-3; type: cell-based; conditions: Annexin V-FITC, BxPC-3, IC50 concentration, 72 h
Procedure: (§6) The Annexin V-FITC Apoptosis Detection Kit was utilized to assess the induction of apoptosis following 72 h incubation with the tested MMZ compounds. BxPC-3 and HT-29 cells were plated at a density of 4 × 10^5 cells in 6-well plates. After 24 h, the cells were exposed to IC50 concentrations of MMZ-45AA and […], determined in the MTT assay. The experimental setup included a vehicle control with a final solvent concentration of less than 0.5% v/v DMSO, and cells treated with 2 µM SN-38 (the active metabolite of irinotecan) as a positive control. The cells were then incubated for an additional 72 h at 37 °C with 5% CO2.
(§7) Following the exposure period, the cells were trypsinized, transferred to cytometric tubes, and allowed to incubate for 40 min. Subsequently, they were centrifuged at 1400 rpm for 10 min at 4 °C. The supernatant was then removed, and the cell pellet was diluted in 1 mL PBS. The remaining steps were carried out according to the instructions provided by the manufacturer of the Annexin V-FITC Apoptosis Detection Kit. The results reported in this study were obtained from three independent experiments

HT-29 cells [6] = assay: Annexin V-FITC/PI flow cytometry, HT-29; type: cell-based; conditions: Annexin V-FITC, HT-29, IC50 concentration, 72 h
Procedure: as §6, §7

[7] = MTT cell viability, WI-38 normal fibroblasts; type: cell-based; conditions: human, WI-38 normal fibroblast cells, read-out: % cell viability ± SD; for viability at 72 h: WI-38, 72 h
Procedure: as §2, §3

[8] = BxPC-3, 24-h MTT, independent experiment 1, read-out: IC50(1)
[9] = BxPC-3, 24-h MTT, independent experiment 2, read-out: IC50(2)
[10] = BxPC-3, 24-h MTT, read-out: Mean IC50 ± SD
[11] = BxPC-3, 72-h MTT, independent experiment 1, read-out: IC50(1)
[12] = BxPC-3, 72-h MTT, independent experiment 2, read-out: IC50(2)
[13] = BxPC-3, 72-h MTT, read-out: Mean IC50 ± SD
[14] = HT-29, 24-h MTT, independent experiment 1, read-out: IC50(1)
[15] = HT-29, 24-h MTT, independent experiment 2, read-out: IC50(2)
[16] = HT-29, 24-h MTT, read-out: Mean IC50 ± SD
[17] = HT-29, 72-h MTT, independent experiment 1, read-out: IC50(1)
[18] = HT-29, 72-h MTT, independent experiment 2, read-out: IC50(2)
[19] = HT-29, 72-h MTT, read-out: Mean IC50 ± SD

| Structure (SMILES) | GI50 (A549) [µM] | IC50 (BxPC-3 cells [1]; [8]) [µM] | IC50 (BxPC-3 cells [1]; [9]) [µM] | IC50 (BxPC-3 cells [1]; [10]) [µM] | IC50 (BxPC-3 cells [1]; [11]) [µM] | IC50 (BxPC-3 cells [1]; [12]) [µM] | IC50 (BxPC-3 cells [1]; [13]) [µM] | IC50 (HT-29 cells [2]; [14]) [µM] | IC50 (HT-29 cells [2]; [15]) [µM] | IC50 (HT-29 cells [2]; [16]) [µM] | IC50 (HT-29 cells [2]; [17]) [µM] | IC50 (HT-29 cells [2]; [18]) [µM] | IC50 (HT-29 cells [2]; [19]) [µM] | % of apoptotic cells (BxPC-3 cells [3]) | % of apoptotic cells (HT-29 cells [4]) [%] | % of apoptotic cells (BxPC-3 cells [5]) [%] | % of apoptotic cells (HT-29 cells [6]) [%] | further results |
| --- | --- | --- | --- | --- | --- | --- | --- | --- | --- | --- | --- | --- | --- | --- | --- | --- | --- | --- |
| N#Cc1ccc(C(NCc2ccccc2)c2cccc3ccccc23)cc1 (centres unmarked) [compound 14t] |  |  |  |  |  |  |  |  |  |  |  |  |  |  |  |  |  | GI50 (HBL100): 5 µM; GI50 (HeLa): 4.1 µM; GI50 (SW1573): 6.3 µM; GI50 (T47D): 8.4 µM |
| N.N.[Cl][Pt][Cl] [cisplatin] | 4.9 |  |  |  |  |  |  |  |  |  |  |  |  |  |  |  |  |  |
| COC(=O)[C@H](Cc1ccccc1)N[C@@H](c1ccccc1)c1c(O)ccc2ccccc12 (mixture of isomers) [MMZ-45AA, (S,S) and (R,R)-methyl ((2-hydroxynaphthalen-1-yl)(phenyl)methyl)-L-phenylalaninate] |  | 58.1 | 38 | 48 ± 14.2 | 12.1 | 14.4 | 13.3 | 40.3 | 48.1 | 44.2 ± 5.49 | 12.2 | 11.9 | 12.1 ± 0.247 | 21.9 ± 3.4% | 15.93 ± 3 | 38.7 ± 5.43 | 24.23 ± 1.1 |  |
| COC(=O)[C@@H]1CCCN1[C@@H](c1ccccc1)c1c(O)ccc2ccccc12 (mixture of isomers) [MMZ-140C, (S,S) and (R,R)-methyl ((2-hydroxynaphthalen-1-yl)(phenyl)methyl)-L-prolinate] |  | 23.5 | 36.8 | 30.2 ± 9.39 | 31.7 | 33.2 | 32.4 ± 1.09 | 35.5 | 40 | 37.8 ± 3.2 | 9.01 | 14.1 | 11.6 | No statistically significant changes | 11.73 ± 0.38 | 33.1 ± 1.12 | 15.13 ± 1 | viability at 24 h ([7]; WI-38, 24 h, compound at IC50 concentration obtained for HT-29 cells): 82.9 ± 2.06%; viability at 72 h ([7]; compound at IC50 concentration estimated for BxPC-3 cells): 82.3 ± 6.96%; viability at 72 h ([7]; compound at IC50 concentration obtained for HT-29 cells): 84.2 ± 2.56% |
| Brc1ccc(C(c2cccc3ccccc23)N2CCCC2)cc1 (centres unmarked) [compound 14j] | 7.9 |  |  |  |  |  |  |  |  |  |  |  |  |  |  |  |  |  |
